Measurements published in paper PMC5218480 (PLoS ONE, 2017).

Tested on: MV-4-11 cells
Test: Gene expression microarray analysis (Affymetrix PrimeView) and GSEA
Type: cell-based, human
Set-up: RFU PODN (11730768_x_at) / Fold change /veh PODN (11730768_x_at) / RFU LINC00158 (11744669_a_at) / Fold change /veh LINC00158 (11744669_a_at) / RFU DUSP10 (11751237_a_at) / Fold change /veh DUSP10 (11751237_a_at) / RFU ID3 (11757404_x_at) / Fold change /veh ID3 (11757404_x_at) / RFU PLEKHG5 (11737974_s_at) / Fold change /veh PLEKHG5 (11737974_s_at) / RFU LRRC4B (11730491_at) / Fold change /veh LRRC4B (11730491_at) / RFU GIMAP4 (11747438_a_at) / Fold change /veh GIMAP4 (11747438_a_at) / RFU KRT8 (11758183_x_at) / Fold change /veh KRT8 (11758183_x_at) / RFU CNN1 (11734310_a_at) / Fold change /veh CNN1 (11734310_a_at) / RFU VPS37D (11726825_at) / Fold change /veh VPS37D (11726825_at) / RFU C10orf10 (11716522_x_at) / Fold change /veh C10orf10 (11716522_x_at) / RFU KIR2DL2 /// KIR2DL4 /// KIR2DL5A /// KIR2DL5B /// KIR2DS1 /// KIR2DS2 /// KIR2DS3 /// KIR2DS4 /// KIR3DL3 /// KIR3DL3 /// KIR3DS1 (11738374_at) / Fold change /veh KIR2DL2 /// KIR2DL4 /// KIR2DL5A /// KIR2DL5B /// KIR2DS1 /// KIR2DS2 /// KIR2DS3 /// KIR2DS4 /// KIR3DL3 /// KIR3DL3 /// KIR3DS1 (11738374_at) / RFU C1QL1 (11718748_at) / Fold change /veh C1QL1 (11718748_at) / RFU TMPRSS4 (11747572_a_at) / Fold change /veh TMPRSS4 (11747572_a_at) / RFU HAMP (11756126_x_at) / Fold change /veh HAMP (11756126_x_at) / RFU RNFT2 (11725882_a_at) / Fold change /veh RNFT2 (11725882_a_at) / RFU NR4A2 (11747474_a_at) / Fold change /veh NR4A2 (11747474_a_at) / RFU ABCC12 (11746883_a_at) / Fold change /veh ABCC12 (11746883_a_at) / RFU TMEM136 (11760407_x_at) / Fold change /veh TMEM136 (11760407_x_at) / RFU CLDN22 /// WWC2 (11732394_at) / Fold change /veh CLDN22 /// WWC2 (11732394_at) / RFU HLA-DPB1 (11760878_x_at) / Fold change /veh HLA-DPB1 (11760878_x_at) / RFU SPINT1 (11716480_a_at) / Fold change /veh SPINT1 (11716480_a_at) / RFU GAP43 (11754022_s_at) / Fold change /veh GAP43 (11754022_s_at) / RFU A4GNT (11735810_at) / Fold change /veh A4GNT (11735810_at) / RFU PRB3 (11715151_x_at) / Fold change /veh PRB3 (11715151_x_at) / RFU TUBB4B (11761932_at) / Fold change /veh TUBB4B (11761932_at) / RFU CAPN14 (11732068_a_at) / Fold change /veh CAPN14 (11732068_a_at) / RFU TMCC2 (11721928_a_at) / Fold change /veh TMCC2 (11721928_a_at) / RFU IRGQ (11745062_a_at) / Fold change /veh IRGQ (11745062_a_at) / RFU FAM174B (11720279_a_at) / Fold change /veh FAM174B (11720279_a_at) / RFU TMPRSS4 (11748680_a_at) / Fold change /veh TMPRSS4 (11748680_a_at) / RFU FAM212B (11763350_a_at) / Fold change /veh FAM212B (11763350_a_at) / RFU PLEKHG5 (11743358_a_at) / Fold change /veh PLEKHG5 (11743358_a_at) / RFU ZSCAN30 (11745921_a_at) / Fold change /veh ZSCAN30 (11745921_a_at) / RFU CMKLR1 (11741424_a_at) / Fold change /veh CMKLR1 (11741424_a_at) / RFU LOC101060620 /// MAPK8IP1 (11723275_at) / Fold change /veh LOC101060620 /// MAPK8IP1 (11723275_at) / RFU SPTSSB (11747773_x_at) / Fold change /veh SPTSSB (11747773_x_at) / RFU PRSS12 (11739890_at) / Fold change /veh PRSS12 (11739890_at) / RFU BIN1 (11741810_x_at) / Fold change /veh BIN1 (11741810_x_at) / RFU WNT11 (11732464_a_at) / Fold change /veh WNT11 (11732464_a_at) / RFU C10orf10 (11716521_a_at) / Fold change /veh C10orf10 (11716521_a_at) / RFU C5orf56 (11738089_at) / Fold change /veh C5orf56 (11738089_at) / RFU CYB561 (11721691_x_at) / Fold change /veh CYB561 (11721691_x_at) / RFU ANKRD19P (11752326_a_at) / Fold change /veh ANKRD19P (11752326_a_at) / RFU OR2T12 /// OR2T33 /// OR2T8 (11738714_s_at) / Fold change /veh OR2T12 /// OR2T33 /// OR2T8 (11738714_s_at) / RFU VCAN (11748164_a_at) / Fold change /veh VCAN (11748164_a_at) / RFU JSRP1 (11732532_at) / Fold change /veh JSRP1 (11732532_at) / RFU KRTAP10-11 (11738290_x_at) / Fold change /veh KRTAP10-11 (11738290_x_at) / RFU MYO3A (11730013_a_at) / Fold change /veh MYO3A (11730013_a_at) / RFU EBF3 (11725865_a_at) / Fold change /veh EBF3 (11725865_a_at) / RFU CAMK2N1 (11719241_x_at) / Fold change /veh CAMK2N1 (11719241_x_at) / RFU C5orf56 (11738088_a_at) / Fold change /veh C5orf56 (11738088_a_at) / RFU OLFML3 (11715873_a_at) / Fold change /veh OLFML3 (11715873_a_at) / RFU LOC100653217 /// NTM (11731650_a_at) / Fold change /veh LOC100653217 /// NTM (11731650_a_at) / RFU MAPK11 (11762145_a_at) / Fold change /veh MAPK11 (11762145_a_at) / RFU FIZ1 (11724087_x_at) / Fold change /veh FIZ1 (11724087_x_at) / RFU OASL (11726364_x_at) / Fold change /veh OASL (11726364_x_at) / RFU SOX15 (11748057_x_at) / Fold change /veh SOX15 (11748057_x_at) / RFU CD79A (11719716_a_at) / Fold change /veh CD79A (11719716_a_at) / RFU HIST1H1D (11736915_at) / Fold change /veh HIST1H1D (11736915_at) / RFU CASKIN2 (11723855_a_at) / Fold change /veh CASKIN2 (11723855_a_at) / RFU LOC730098 (11760151_x_at) / Fold change /veh LOC730098 (11760151_x_at) / RFU OR4N2 (11742367_at) / Fold change /veh OR4N2 (11742367_at) / RFU PRRT2 (11749266_a_at) / Fold change /veh PRRT2 (11749266_a_at) / RFU SNX32 (11753110_a_at) / Fold change /veh SNX32 (11753110_a_at) / RFU CDHR5 (11726645_a_at) / Fold change /veh CDHR5 (11726645_a_at) / RFU RCAN1 (11760418_a_at) / Fold change /veh RCAN1 (11760418_a_at) / RFU FAM167A (11723789_a_at) / Fold change /veh FAM167A (11723789_a_at) / RFU FAM26E (11764081_at) / Fold change /veh FAM26E (11764081_at) / RFU ISYNA1 (11749810_s_at) / Fold change /veh ISYNA1 (11749810_s_at) / RFU ACY1 (11761880_at) / Fold change /veh ACY1 (11761880_at) / RFU 11764098_at / Fold change /veh 11764098_at / RFU SAMD14 (11745864_x_at) / Fold change /veh SAMD14 (11745864_x_at) / RFU NPB (11741838_a_at) / Fold change /veh NPB (11741838_a_at) / RFU TMPRSS6 (11731388_a_at) / Fold change /veh TMPRSS6 (11731388_a_at) / RFU KRTAP10-2 (11738614_at) / Fold change /veh KRTAP10-2 (11738614_at) / RFU ARHGAP8 /// PRR5-ARHGAP8 (11727945_x_at) / Fold change /veh ARHGAP8 /// PRR5-ARHGAP8 (11727945_x_at) / RFU KRTAP5-7 /// NADSYN1 (11734609_at) / Fold change /veh KRTAP5-7 /// NADSYN1 (11734609_at) / RFU RASL12 (11751679_a_at) / Fold change /veh RASL12 (11751679_a_at) / RFU CDKN2B (11736163_a_at) / Fold change /veh CDKN2B (11736163_a_at) / RFU PRF1 (11729649_at) / Fold change /veh PRF1 (11729649_at) / RFU, ZNF638 /// ZNF638-IT1 / Fold change vs veh, ZNF638 /// ZNF638-IT1 / RFU, PANK3 / Fold change vs veh, PANK3 / RFU, SH3YL1 / Fold change vs veh, SH3YL1 / RFU, ZEB2 / Fold change vs veh, ZEB2 / RFU, NRIP1 / Fold change vs veh, NRIP1 / RFU, PTTG1IP / Fold change vs veh, PTTG1IP / RFU, CAPN2 / Fold change vs veh, CAPN2 / RFU, MED14 / Fold change vs veh, MED14 / RFU, SNORA58 / Fold change vs veh, SNORA58 / RFU, C1orf63 / Fold change vs veh, C1orf63 / RFU, LRRFIP1 / Fold change vs veh, LRRFIP1 / RFU, NDUFAF7 / Fold change vs veh, NDUFAF7 / RFU, SLC12A2 / Fold change vs veh, SLC12A2 / RFU, IBTK / Fold change vs veh, IBTK / RFU, ESF1 / Fold change vs veh, ESF1 / Fold change vs veh, TMEM50B / RFU, TAOK1 / Fold change vs veh, TAOK1 / RFU, ACBD3 / Fold change vs veh, ACBD3 / RFU, TMA16 / Fold change vs veh, TMA16 / RFU, RWDD3 / Fold change vs veh, RWDD3 / RFU, BCAT1 / Fold change vs veh, BCAT1 / RFU, EDEM3 / Fold change vs veh, EDEM3 / RFU, TMEM33 / Fold change vs veh, TMEM33 / RFU, WDR75 / Fold change vs veh, WDR75 / RFU, AHCTF1 / Fold change vs veh, AHCTF1 / RFU, TFRC / Fold change vs veh, TFRC / RFU, ZDHHC17 / Fold change vs veh, ZDHHC17 / RFU, NOM1 / Fold change vs veh, NOM1 / RFU, ARL8B / Fold change vs veh, ARL8B / RFU, ZBTB11 / Fold change vs veh, ZBTB11 / RFU, TAMM41 / Fold change vs veh, TAMM41 / RFU, KIAA1704 /// LOC100996395 / Fold change vs veh, KIAA1704 /// LOC100996395 / RFU, ING1 / Fold change vs veh, ING1 / RFU, TRMT61B / Fold change vs veh, TRMT61B / RFU, FUBP3 / Fold change vs veh, FUBP3 / RFU, TP53 / Fold change vs veh, TP53 / RFU, TNKS2 / Fold change vs veh, TNKS2 / RFU, ZFP14 / Fold change vs veh, ZFP14 / RFU, ACTR2 / Fold change vs veh, ACTR2 / RFU, PPP3R1 / Fold change vs veh, PPP3R1 / RFU, PIK3R1 / Fold change vs veh, PIK3R1 / RFU, HNRNPA1 / Fold change vs veh, HNRNPA1 / RFU, RNF170 / Fold change vs veh, RNF170 / RFU, ZNF28 / Fold change vs veh, ZNF28 / RFU, RNGTT / Fold change vs veh, RNGTT / RFU, OGT / Fold change vs veh, OGT / RFU, BRD1 / Fold change vs veh, BRD1 / RFU, MARS / Fold change vs veh, MARS / RFU, ZNF655 / Fold change vs veh, ZNF655 / RFU, FAHD1 / Fold change vs veh, FAHD1 / RFU, BDP1 / Fold change vs veh, BDP1 / RFU, LRRCC1 / Fold change vs veh, LRRCC1 / RFU, ARID1A / Fold change vs veh, ARID1A / RFU, ZNF146 / Fold change vs veh, ZNF146 / RFU, ZNF330 / Fold change vs veh, ZNF330 / RFU, GPN3 / Fold change vs veh, GPN3 / RFU, C9orf123 / Fold change vs veh, C9orf123 / RFU, N4BP2L2 / Fold change vs veh, N4BP2L2 / RFU, ARFIP1 / Fold change vs veh, ARFIP1 / RFU, FAM179B / Fold change vs veh, FAM179B / RFU, BCL10 / Fold change vs veh, BCL10 / RFU, UHRF1BP1L / Fold change vs veh, UHRF1BP1L / RFU, BET1 / Fold change vs veh, BET1 / RFU, CNOT2 / Fold change vs veh, CNOT2 / RFU, ZNF268 / Fold change vs veh, ZNF268 / Fold change vs veh, ZNF507 / RFU, DGCR2 / Fold change vs veh, DGCR2 / RFU, WDSUB1 / Fold change vs veh, WDSUB1 / Fold change vs veh, HSP90B1 /// MIR3652 / RFU, ADSS / Fold change vs veh, ADSS / RFU, GK / Fold change vs veh, GK / RFU, ZNF148 / Fold change vs veh, ZNF148 / RFU, TAF9 / Fold change vs veh, TAF9 / RFU, SLC1A5 / Fold change vs veh, SLC1A5 / RFU, SLMO2 / Fold change vs veh, SLMO2 / RFU, ABCC4 / Fold change vs veh, ABCC4 / RFU, LOC101060439 /// RAP1B / Fold change vs veh, LOC101060439 /// RAP1B / RFU, RFX7 / Fold change vs veh, RFX7 / RFU, GTPBP10 / Fold change vs veh, GTPBP10 / RFU, CNEP1R1 / Fold change vs veh, CNEP1R1 / RFU, BIVM-ERCC5 /// ERCC5 / Fold change vs veh, BIVM-ERCC5 /// ERCC5 / RFU, ILF3 / Fold change vs veh, ILF3 / RFU 11762660_at / Fold change /veh 11762660_at / RFU VCAN (11757783_s_at) / Fold change /veh VCAN (11757783_s_at) / RFU DDX43 (11728927_at) / Fold change /veh DDX43 (11728927_at) / RFU KRT8 (11758188_x_at) / Fold change /veh KRT8 (11758188_x_at) / RFU NKD1 (11759106_at) / Fold change /veh NKD1 (11759106_at) / RFU SRD5A1 (11742802_a_at) / Fold change /veh SRD5A1 (11742802_a_at) / RFU TPSAB1 /// TPSB2 (11721975_s_at) / Fold change /veh TPSAB1 /// TPSB2 (11721975_s_at) / RFU GSTM3 (11746129_a_at) / Fold change /veh GSTM3 (11746129_a_at) / RFU IL23R (11737362_x_at) / Fold change /veh IL23R (11737362_x_at) / RFU TMEM51 (11727254_a_at) / Fold change /veh TMEM51 (11727254_a_at) / RFU PIWIL2 (11732686_x_at) / Fold change /veh PIWIL2 (11732686_x_at) / RFU ORM1 (11744905_x_at) / Fold change /veh ORM1 (11744905_x_at) / RFU CCDC152 (11743942_at) / Fold change /veh CCDC152 (11743942_at) / RFU ECM1 (11717891_a_at) / Fold change /veh ECM1 (11717891_a_at) / RFU IL23R (11748794_a_at) / Fold change /veh IL23R (11748794_a_at) / RFU TNFAIP8L3 (11732012_x_at) / Fold change /veh TNFAIP8L3 (11732012_x_at) / RFU MBOAT4 (11741988_at) / Fold change /veh MBOAT4 (11741988_at) / RFU 11764193_at / Fold change /veh 11764193_at / RFU TMEM53 (11763286_at) / Fold change /veh TMEM53 (11763286_at) / RFU MAGEB2 (11727129_at) / Fold change /veh MAGEB2 (11727129_at) / RFU TMEM200A (11744735_a_at) / Fold change /veh TMEM200A (11744735_a_at) / RFU CCDC152 (11751479_a_at) / Fold change /veh CCDC152 (11751479_a_at) / RFU FAM211A (11726209_a_at) / Fold change /veh FAM211A (11726209_a_at) / RFU RGS16 (11746705_a_at) / Fold change /veh RGS16 (11746705_a_at) / RFU VCAN (11755009_s_at) / Fold change /veh VCAN (11755009_s_at) / RFU RHOB (11743442_s_at) / Fold change /veh RHOB (11743442_s_at) / RFU RGS16 (11720943_a_at) / Fold change /veh RGS16 (11720943_a_at) / RFU RGS16 (11720944_at) / Fold change /veh RGS16 (11720944_at) / RFU, VPS4B / Fold change vs veh, VPS4B / RFU, CREB1 / Fold change vs veh, CREB1 / RFU, DNAJC13 / Fold change vs veh, DNAJC13 / RFU, GNAQ / Fold change vs veh, GNAQ / RFU, CDK5R1 / Fold change vs veh, CDK5R1 / RFU, ZRANB3 / Fold change vs veh, ZRANB3 / RFU, CUL4A / Fold change vs veh, CUL4A / RFU, CCNY / Fold change vs veh, CCNY / RFU, UFL1 / Fold change vs veh, UFL1 / RFU, COG3 / Fold change vs veh, COG3 / RFU, DIAPH2 / Fold change vs veh, DIAPH2 / RFU, SKA2 / Fold change vs veh, SKA2 / RFU, AFF3 / Fold change vs veh, AFF3 / RFU, LMF1 / Fold change vs veh, LMF1 / RFU, IPO11 / Fold change vs veh, IPO11 / RFU, DFFB / Fold change vs veh, DFFB / RFU, FOXP1 / Fold change vs veh, FOXP1 / RFU, CARD8 / Fold change vs veh, CARD8 / RFU, STRN3 / Fold change vs veh, STRN3 / RFU, ADK / Fold change vs veh, ADK / RFU, RASSF2 / Fold change vs veh, RASSF2 / RFU, WIPF1 / Fold change vs veh, WIPF1 / RFU, LARP1B / Fold change vs veh, LARP1B / RFU, RASA1 / Fold change vs veh, RASA1 / RFU, RB1 / Fold change vs veh, RB1 / RFU, PPFIA1 / Fold change vs veh, PPFIA1 / RFU, MAT2A / Fold change vs veh, MAT2A / RFU, CCT5 / Fold change vs veh, CCT5 / RFU, WDR92 / Fold change vs veh, WDR92 / RFU, CUX1 / Fold change vs veh, CUX1 / RFU, TTC7A / Fold change vs veh, TTC7A / RFU, TMEM135 / Fold change vs veh, TMEM135 / RFU, DEPTOR / Fold change vs veh, DEPTOR / RFU, CPM / Fold change vs veh, CPM / RFU, DNAJB6 / Fold change vs veh, DNAJB6 / RFU, CACNA2D3 / Fold change vs veh, CACNA2D3 / RFU, DTX4 / Fold change vs veh, DTX4 / RFU, TFCP2 / Fold change vs veh, TFCP2 / RFU, GMCL1 /// GMCL1P1 / Fold change vs veh, GMCL1 /// GMCL1P1 / RFU, AEBP2 / Fold change vs veh, AEBP2 / RFU, SNHG1 /// SNORD22 /// SNORD25 /// SNORD26 /// SNORD27 /// SNORD28 /// SNORD29 /// SNORD31 / Fold change vs veh, SNHG1 /// SNORD22 /// SNORD25 /// SNORD26 /// SNORD27 /// SNORD28 /// SNORD29 /// SNORD31 / Fold change (Aza/veh), C12orf56 (ProbeSet 11735607_a_at) / Fold change (ACY-1035/veh), C12orf56 (ProbeSet 11735607_a_at) / Fold change (Aza/veh), FGFR1OP (ProbeSet 11751329_s_at) / Fold change (ACY-1035/veh), FGFR1OP (ProbeSet 11751329_s_at) / Fold change (Aza/veh), VPS36 (ProbeSet 11739960_a_at) / Fold change (ACY-1035/veh), VPS36 (ProbeSet 11739960_a_at) / RFU SYPL1 (11715823_x_at) / Fold change /veh SYPL1 (11715823_x_at) / RFU IGFBP7 (11715501_s_at) / Fold change /veh IGFBP7 (11715501_s_at) / RFU REEP3 (11722064_at) / Fold change /veh REEP3 (11722064_at) / RFU IGLL1 (11728026_x_at) / Fold change /veh IGLL1 (11728026_x_at): dose or concentration left out as unconfirmed
Conditions: ProbeSet 11756954_s_at; LIST B

Nc1ccc(-c2cccs2)cc1NC(=O)c1ccc2c(c1)cc(C1CC1)n2CCN1CCOCC1 [ACY-1035]
Fold change vs veh, ZEB2: 0.85
